In US20140038281A1, “SYSTEM FOR CARGO DELIVERY INTO THE CELLS” (CEPEP III AB, priority 2011, published 2014):

System: Hela pLuc 705 cells
Experiment: Toxicity measurements (MTS cell proliferation assay)
Type: cell-based
Conditions: peptide:2'-OMe ON complexes, 200 nM ON, 24 hours, most effective concentrations (FIG. 6)
Procedure: Cell proliferation was studied with CellTiter 96® A Queous Non-Radioactive Cell Proliferation Assay (MTS) according to the manufacturer's instructions. Briefly, 10000 Hela pLuc 705 cells per well were seeded 1 day prior to experiment on a 96-well plate in complete DMEM. Cells were treated with peptide: 2′-OMe ON complexes at four different molar ratios (5:1, 7:1, 10:1 and 20:1) for 4 hours in serum-free medium, followed by the addition of 10% serum containing medium and incubated for additional 20 hours. MTS was added according to the manufacturer's general protocol (Promega Biotech AB, Sweden). The conversion of MTS into aqueous, soluble formazan is accomplished by dehydrogenase enzymes found in metabolically active cells. The absorbance of formazan product was measured at 490 nm, which is directly proportional to the number of living cells in culture. Absorbance was measured on Tecan Sunrise microplate absorbance reader (Tecan Group Ltd., Switzerland) and the percentage of viable cells was determined using GraphPad Prism software 5.0 (Graphpad Software, CA, USA).

Row | SMILES | toxicity (cell viability by MTS)
1 | CCCCCCCCCCCCCCCCCC(=O)N[C@@H](C)C(=O)NCC(=O)N[C@@H](Cc1ccc(OP(=O)(O)O)cc1)C(=O)N[C@@H](CC(C)C)C(=O)N[C@@H](CC(C)C)C(=O)NCC(=O)N[C@@H](CCCCN)C(=O)N[C@H](C(=O)N[C@@H](CC(N)=O)C(=O)N[C@@H](CC(C)C)C(=O)N[C@@H](CCCCN)C(=O)N[C@@H](C)C(=O)N[C@@H](CC(C)C)C(=O)N[C@@H](C)C(=O)N[C@@H](C)C(=O)N[C@@H](CC(C)C)C(=O)N[C@@H](C)C(=O)N[C@@H](CCCCN)C(=O)N[C@@H](CCCCN)C(=O)N[C@H](C(=O)N[C@@H](CC(C)C)C(N)=O)[C@@H](C)CC)[C@@H](C)O [NickFect 1, Stearyl-AGY(PO3)LLGKTNLKALAALAKKIL-NH2] | not toxic
2 | CCCCCCCCCCCCCCCCCC(=O)N[C@@H](C)C(=O)NCC(=O)N[C@@H](Cc1ccc(O)cc1)C(=O)N[C@@H](CC(C)C)C(=O)N[C@@H](CC(C)C)C(=O)NCC(=O)N[C@@H](CCCCN)C(=O)N[C@H](C(=O)N[C@@H](CC(N)=O)C(=O)N[C@@H](CC(C)C)C(=O)N[C@@H](CCCCN)C(=O)N[C@@H](C)C(=O)N[C@@H](CC(C)C)C(=O)N[C@@H](C)C(=O)N[C@@H](C)C(=O)N[C@@H](CC(C)C)C(=O)N[C@@H](C)C(=O)N[C@@H](CCCCN)C(=O)N[C@@H](CCCCN)C(=O)N[C@H](C(=O)N[C@@H](CC(C)C)C(N)=O)[C@@H](C)CC)[C@@H](C)OP(=O)(O)O [NickFect 2, Stearyl-AGYLLGKT(PO3)NLKALAALAKKIL-NH2] | not toxic
